Our source for the remaining activity values is article PMC8286840, “Identifying SARS-CoV-2 antiviral compounds by screening for small molecule inhibitors of Nsp3 papain-like protease” (Biochemical Journal, 2021).

The target in assay [1] is T1, SARS-CoV-2 PLpro (nsp3 1564–1878) (Severe acute respiratory syndrome coronavirus 2, UniProt P0DTD1). The experiment in a line: biochemical. The arrangement: FRET-quenched peptide (Pro3) cleavage by PLpro, 10 min pre-incubation, slope over 20 min, normalised to no-compound control. The following applies: low concentration screen, read-out: % of control remaining.
Assay [2] deals with T1, SARS-CoV-2 PLpro (nsp3 1564–1878). The experiment in a line: biochemical. The arrangement: FRET-quenched peptide (Pro3) cleavage by PLpro, 10 min pre-incubation, slope over 20 min, normalised to no-compound control. The note with it: high concentration screen, read-out: % of control remaining.

Each structure is given as a SMILES string. Structures can show the parent of a compound that is named as a salt. Where two headings read alike, the source gives them in different places.

On to `NC(=O)N[C@@H](CCC(=O)O)C(=O)O` [Carglumic Acid], for which the remaining activity at 1.25 µM in assay [1] (Well no.=7594) came to 99.7%. In addition, the remaining activity at 3.75 µM in assay [2] (Well no.=7594) came to 102%.
Take `Nc1ccc(-c2cccc3c(=O)cc(N4CCOCC4)oc23)cc1` [PI 828 - 2-(4-Morpholinyl)-8-(4-aminopheny)l-4H-1-benzopyran-4-one]: in assay [1] (Well no.=2628), the remaining activity at 1.25 µM came out at 98.1%. Also, the remaining activity at 3.75 µM in assay [2] (Well no.=2628) is 102%.
For `N=C(N)NC(=O)c1nc(Cl)c(N)nc1N` [Amiloride HCl dihydrate], in assay [1] (Well no.=5290), the remaining activity at 1.25 µM is 101%. Besides, the remaining activity at 3.75 µM in assay [2] (Well no.=5290) amounted to 100%.
With `CC[N+](C)(CC)CCOC(=O)C(O)(c1ccccc1)c1ccccc1` [Methylbenactyzium Bromide], the remaining activity at 1.25 µM in assay [1] (Well no.=7773) was determined as 101%. In assay [2] (Well no.=7773), the remaining activity at 3.75 µM came out at 94.7%.
For `CCN1CCN(C(c2ccc(C(F)(F)F)cc2)c2ccc3cccnc3c2O)CC1` (centres unmarked) [ML311], the remaining activity at 1.25 µM in assay [1] (Well no.=6532) is 99.7%. Also, the remaining activity at 3.75 µM in assay [2] (Well no.=6532) amounted to 99.6%.
As to `COC1=C(OC)C(=O)C(CCCCCCCCCCO)=C(C)C1=O` [Idebenone], the results for the remaining activity at 1.25 µM in assay [1] (Well no.=1616) and in assay [1] (Well no.=3859) were 103% and 104%, respectively. The values for the remaining activity at 3.75 µM in assay [2] (Well no.=1616) and in assay [2] (Well no.=3859) were 99.2% and 105%, respectively.
Consider `c1ccc(C(OC2CCN(CCCc3nn[nH]n3)CC2)c2ccccc2)cc1` [4-(benzhydryloxy)-1-[3-(1H-tetraazol-5-yl)propyl]piperidine], for which, in assay [1] (Well no.=6014), the remaining activity at 1.25 µM turned out to be 95.5%. Also, the remaining activity at 3.75 µM in assay [2] (Well no.=6014) was determined as 93.3%.
With `CCCCCC/C=C/CCCCCCCCCC(=O)O` [11(E)-Octadecenoic acid], the remaining activity at 1.25 µM in assay [1] (Well no.=4350) turned out to be 106%. In addition, the remaining activity at 3.75 µM in assay [2] (Well no.=4350) worked out at 104%.
Regarding `CC(=O)c1c(C)c2cnc(Nc3ccc(N4CCNCC4)cn3)nc2n(C2CCCC2)c1=O` [PD 0332991 (Palbociclib) HCl], the remaining activity at 1.25 µM in assay [1] (Well no.=4667) was 99%. For the same compound, the remaining activity at 3.75 µM in assay [2] (Well no.=4667) came to 98%.
As for `CN(C)CCCN1c2ccccc2Sc2ccc(Cl)cc21` [Chlorpromazine hydrochloride], the remaining activity at 1.25 µM in assay [1] (Well no.=44) turned out to be 98.8%. Also, the remaining activity at 3.75 µM in assay [2] (Well no.=44) worked out at 96.9%.
As to `C=CCNC1=C2C[C@@H](C)C[C@H](OC)[C@H](O)[C@@H](C)/C=C(\C)[C@H](OC(N)=O)[C@@H](OC)/C=C\C=C(/C)C(=O)NC(=CC1=O)C2=O` [Tanespimycin (17-AAG)], in assay [1] (Well no.=8932), the remaining activity at 1.25 µM turned out to be 88%. Moreover, in assay [2] (Well no.=8932), the remaining activity at 3.75 µM came to 84.1%.
For the compound `CCCC(=O)Oc1ccc2[nH]c(C(=O)c3cc4ccccc4[nH]3)cc2c1` [PDGF Receptor Tyrosine Kinase Inhibitor II], the remaining activity at 1.25 µM in assay [1] (Well no.=2503) was found to be 101%. Further, in assay [2] (Well no.=2503), the remaining activity at 3.75 µM stood at 99.2%.
As for `CN1Cc2c(ccc3c2OCO3)[C@@H]2[C@H]1c1cc3c(cc1C[C@@H]2O)OCO3` [(+)-Chelidonine], the remaining activity at 1.25 µM in assay [1] (Well no.=3439) came to 95.5%. The remaining activity at 3.75 µM in assay [2] (Well no.=3439) amounted to 97.2%.
For `COc1cc2ncnc(Nc3ccc(Cl)cc3F)c2cc1OC` [4-[(4'-Chloro-2'-fluoro)phenylamino]-6,7-dimethoxyquinazoline hydrochloride], in assay [1] (Well no.=2540), the remaining activity at 1.25 µM is 96.4%. Also, in assay [2] (Well no.=2540), the remaining activity at 3.75 µM amounted to 98.1%.
Turning to `O=C(O)C(=O)c1cn(Cc2ccccc2)c2ccc(-c3ccc(OC(F)(F)F)cc3)cc12` [Tiplaxtinin], in assay [1] (Well no.=5648), the remaining activity at 1.25 µM worked out at 92.2%. In assay [2] (Well no.=5648), the remaining activity at 3.75 µM amounted to 93.4%.
`CCc1nn(CCCN2CCN(c3cccc(Cl)c3)CC2)c(=O)n1CCOc1ccccc1` [Nefazodone]: in assay [1] (Well no.=2009), the remaining activity at 1.25 µM was found to be 101%. In addition, the remaining activity at 3.75 µM in assay [2] (Well no.=2009) amounted to 101%.
Consider `CC(C)NNC(=O)c1ccncc1` [Iproniazid], for which, in assay [1] (Well no.=2048), the remaining activity at 1.25 µM is 94.9%. For the same compound, the remaining activity at 3.75 µM in assay [2] (Well no.=2048) was 96.1%.
On to `CC(CC(=O)O)C(=O)O` (centres unmarked) [2-Methylsuccinic acid], for which the remaining activity at 1.25 µM in assay [1] (Well no.=6635) amounted to 100%. Besides, the remaining activity at 3.75 µM in assay [2] (Well no.=6635) was 98.3%.
On to `OC[C@H]1O[C@@H](n2cnc3c(Nc4ccccc4)ncnc32)[C@H](O)[C@@H]1O` [N6-Phenyladenosine], for which, in assay [1] (Well no.=1501), the remaining activity at 1.25 µM is 97.5%. In addition, the remaining activity at 3.75 µM in assay [2] (Well no.=1501) was 100%.
On to `C[C@@H]1O[C@@H](OC[C@H]2O[C@@H](Oc3c(-c4ccc(OCCO)c(OCCO)c4)oc4cc(OCCO)cc(O)c4c3=O)[C@H](O)[C@@H](O)[C@@H]2O)[C@H](O)[C@H](O)[C@H]1O` [Troxerutin], for which the remaining activity at 1.25 µM in assay [1] (Well no.=4866) was 95.4%. Besides, the remaining activity at 3.75 µM in assay [2] (Well no.=4866) is 93.8%.
As to `CN1CCC(=C2c3ccccc3CC(=O)c3sccc32)CC1` [Ketotifen (fumarate)], in assay [1] (Well no.=7421), the remaining activity at 1.25 µM worked out at 100%. The remaining activity at 3.75 µM in assay [2] (Well no.=7421) was found to be 97%.
In the case of `CCCCCCC[N+](CC)(CC)CCCCc1ccc(Cl)cc1` [Clofilium tosylate], in assay [1] (Well no.=6882), the remaining activity at 1.25 µM came out at 91.1%. In addition, the remaining activity at 3.75 µM in assay [2] (Well no.=6882) came out at 90.5%.
As to `COc1cc(OC)c2cc(-c3ccncc3)cnc2c1` [DMPQ dihydrochloride], the remaining activity at 1.25 µM in assay [1] (Well no.=5933) came out at 100%. Moreover, the remaining activity at 3.75 µM in assay [2] (Well no.=5933) was 98.1%.
For the compound `CC[C@H]1OC(=O)C[C@@H](O)[C@H](C)[C@@H](O[C@@H]2O[C@H](C)[C@@H](O[C@H]3C[C@@](C)(O)[C@@H](O)[C@H](C)O3)[C@H](N(C)C)[C@H]2O)[C@@H](CC=O)C[C@@H](C)C(=O)/C=C/C(C)=C/[C@@H]1CO[C@@H]1O[C@H](C)[C@@H](O)[C@@H](OC)[C@H]1OC` [Tylosin tartrate], in assay [1] (Well no.=4985), the remaining activity at 1.25 µM turned out to be 95.4%. In addition, the remaining activity at 3.75 µM in assay [2] (Well no.=4985) turned out to be 93%.
With `O=c1[nH]cnc2c1ncn2[C@H]1CC[C@@H](CO)O1` [Didanosine], the remaining activity at 1.25 µM in assay [1] (Well no.=1868) came out at 97.7%. Further, the remaining activity at 3.75 µM in assay [2] (Well no.=1868) was 104%.
`CCCC[C@@H](C)[C@@H](OC(=O)C[C@@H](CC(=O)O)C(=O)O)[C@H](C[C@@H](C)CCCCCC[C@@H](O)C[C@H](O)[C@H](C)N)OC(=O)C[C@@H](CC(=O)O)C(=O)O` [Fumonisin B2]: the remaining activity at 1.25 µM in assay [1] (Well no.=3285) was 95.4%. Further, the remaining activity at 3.75 µM in assay [2] (Well no.=3285) was 95.7%.
On to `NC(=O)c1cccnc1` [Nicotinamide (Niacinamide)], for which the remaining activity at 1.25 µM in assay [1] (Well no.=4884) stood at 97.9%. The remaining activity at 3.75 µM in assay [2] (Well no.=4884) was 94.8%.
`N=C1CCCN1Cc1[nH]c(=O)[nH]c(=O)c1Cl` [Tipiracil hydrochloride]: in assay [1] (Well no.=8154), the remaining activity at 1.25 µM was found to be 95.9%. The remaining activity at 3.75 µM in assay [2] (Well no.=8154) is 95.8%.
As to `Cc1nc(=O)c2cc(CN(C)c3ccc(C(=O)N[C@@H](CCC(=O)O)C(=O)O)s3)ccc2[nH]1` [Raltitrexed (Tomudex)], the remaining activity at 1.25 µM in assay [1] (Well no.=4723) is 115%. The remaining activity at 3.75 µM in assay [2] (Well no.=4723) was found to be 106%.
Turning to `Cc1nc2c([nH]1)-c1ccccc1N(C(=O)c1ccc(NC(=O)c3ccccc3-c3ccccc3)cc1)CC2` [Conivaptan (hydrochloride)], the remaining activity at 1.25 µM in assay [1] (Well no.=6463) was found to be 99.7%. Besides, the remaining activity at 3.75 µM in assay [2] (Well no.=6463) is 101%.
